Data as given in PubChem BioAssay (NCI).
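Method: 48-hour compound exposure of cells in 96-well plates, five concentrations, linear interpolation of endpoints. At the GI50, growth is halved. At the TGI there is no net growth.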

What was measured:
Experiment in all cases: NCI tumour cell line growth inhibition, 48 h
MCF7 breast = system: MCF7 breast
HOP-92 NSCLC = system: HOP-92 NSCLC
OVCAR-5 ovarian = system: OVCAR-5 ovarian
OVCAR-8 ovarian = system: OVCAR-8 ovarian
HCT-116 colon = system: HCT-116 colon
HS 578T breast = system: HS 578T breast
IGROV1 ovarian = system: IGROV1 ovarian
HCT-15 colon = system: HCT-15 colon
ACHN renal = system: ACHN renal
CCRF-CEM leukemia = system: CCRF-CEM leukemia
OVCAR-4 ovarian = system: OVCAR-4 ovarian
A549 NSCLC = system: A549 NSCLC
M14 melanoma = system: M14 melanoma
NCI-H522 lung = system: NCI-H522 lung
MALME-3M melanoma = system: MALME-3M melanoma
LOX IMVI melanoma = system: LOX IMVI melanoma
MDA-N = system: MDA-N

| Structure (SMILES) | TGI (MCF7 breast) | TGI (HOP-92 NSCLC) | TGI (OVCAR-5 ovarian) | TGI (OVCAR-8 ovarian) | TGI (HCT-116 colon) | TGI (HS 578T breast) | TGI (IGROV1 ovarian) | TGI (HCT-15 colon) | TGI (ACHN renal) | TGI (CCRF-CEM leukemia) | TGI (OVCAR-4 ovarian) | TGI (A549 NSCLC) | TGI (M14 melanoma) | TGI (NCI-H522 lung) | GI50 (HCT-116 colon) | TGI (MALME-3M melanoma) | TGI (LOX IMVI melanoma) | TGI (MDA-N) |
| --- | --- | --- | --- | --- | --- | --- | --- | --- | --- | --- | --- | --- | --- | --- | --- | --- | --- | --- |
| CCOC(=O)CSc1nc(-c2ccc(OC)cc2)c(C#N)c(=O)[nH]1 | > 100 µM | > 100 µM | > 100 µM | > 100 µM | > 100 µM | > 100 µM | > 100 µM | > 100 µM | > 100 µM | > 100 µM | > 100 µM | > 100 µM | > 100 µM | > 100 µM |  |  |  |  |
| CC(=O)O[C@H]1CC[C@H]2[C@@H]3CCc4cc(O)c(I)cc4[C@H]3CC[C@]12C | 33.8 µM |  | 32.2 µM | 37.9 µM | 29.9 µM | 31.9 µM | 30.5 µM | 22.9 µM | 28.1 µM |  | 28 µM | 29.5 µM | 27.3 µM | 25.2 µM | 16 µM | 37 µM | 30.2 µM | 31.3 µM |
| CC(=O)O[C@H]1C(=O)[C@@]2(C)C(C(OC(=O)c3ccccc3)[C@]3(O)CC(OC(=O)C(O)C(NC(=O)c4ccccc4)c4ccc(F)cc4)C(C)=C1C3(C)C)[C@]1(OC(C)=O)CO[C@@H]1C[C@@H]2O (some centres not stated) | > 10 µM | > 10 µM | > 7.89 µM | > 10 µM | 0.103 µM |  | > 10 µM | > 10 µM | > 10 µM | > 10 µM | > 10 µM | > 10 µM | > 7.03 µM | 1.34 µM |  |  | > 10 µM |  |
| CCOC(=O)/C(C#N)=C(/NS(=O)(=O)c1cc(C)c(Cl)cc1[S-])[n+]1ccc(N(C)C)cc1 | > 100 µM | 91.7 µM | > 100 µM | > 100 µM | > 100 µM | > 100 µM | > 100 µM | > 100 µM | > 100 µM | > 100 µM | > 100 µM | > 100 µM | > 100 µM | > 100 µM |  | > 100 µM |  |  |
| Cc1ccc(SCC(OCn2cnc3c(N)ncnc32)[C@H](C)F)cc1 (some centres not stated) | > 100 µM | > 100 µM | > 100 µM | > 100 µM | > 100 µM | > 100 µM | > 100 µM | > 100 µM | > 100 µM | > 100 µM | > 100 µM | > 100 µM | > 100 µM | > 100 µM |  | > 100 µM | > 100 µM |  |
| C1COC2SC3=C(SC(=C4SC5=C(SCCS5)S4)S3)SC2O1 (configuration not stated) | > 100 µM | > 100 µM | > 100 µM | > 100 µM | > 100 µM | > 100 µM | > 100 µM | > 100 µM | > 100 µM | > 100 µM | > 100 µM | > 100 µM | > 100 µM | > 100 µM |  | > 100 µM |  |  |
| CN(C)c1ccc(N=Nc2cccc3ccoc23)cc1 |  | > 100 µM | > 100 µM | > 100 µM | > 100 µM | > 100 µM | > 100 µM | > 100 µM | > 100 µM | > 100 µM | > 100 µM | > 100 µM | > 100 µM | > 100 µM |  | > 100 µM | > 100 µM | > 100 µM |
| Cc1ccc(S(=O)(=O)Nn2c(-c3ccccc3)c(C#N)c(-c3ccc(Cl)cc3)c(C#N)c2=O)cc1 | > 100 µM | 79.7 µM | > 100 µM |  | 37.3 µM |  |  | > 100 µM | > 100 µM | 60.4 µM | > 100 µM | > 100 µM | 41.4 µM |  |  |  | 52.2 µM | > 100 µM |
| CCOC(=O)c1ccc2c(c1)nc1n2C(c2c(F)cccc2F)SC1 (configuration not stated) | 74.6 µM | > 100 µM | > 100 µM | 58.7 µM | 34 µM | > 100 µM | 42 µM | > 100 µM | > 100 µM | > 100 µM | > 100 µM | > 100 µM | > 100 µM |  |  |  | 58.6 µM |  |
| COc1ccccc1C1C2=C(COC2=O)OC(C)(C)Oc2cc3c(cc21)OCO3 (configuration not stated) | > 31 µM | > 61.5 µM | > 100 µM | > 100 µM | > 36.1 µM | > 100 µM | > 87.1 µM | > 100 µM | > 94.1 µM | > 100 µM | > 100 µM | > 100 µM | > 85.1 µM | > 32 µM |  | > 100 µM | > 44.2 µM |  |
| Cc1c(O)c(OC2OC(CO)C(O)C(O)C2O)cc2c1CC[C@@H]1C2(C)C(=O)C[C@]2(C)[C@@H]([C@@](C)(O)C(O)/C=C/C(C)(C)O)[C@H](O)C[C@@]12C (some centres not stated) | > 100 µM | > 100 µM | > 100 µM | > 100 µM | > 100 µM |  | > 100 µM | > 100 µM | > 100 µM | > 100 µM | > 100 µM | > 100 µM | > 100 µM | > 100 µM |  | > 100 µM | > 100 µM | > 100 µM |
| COC(=O)c1cc(Br)c(C(=O)C(Cl)(Cl)Cl)[nH]1 |  | > 100 µM | > 100 µM | > 100 µM | > 100 µM |  | > 100 µM | > 100 µM | > 100 µM | > 100 µM | > 100 µM | > 100 µM | > 100 µM | > 100 µM |  | > 100 µM | > 100 µM | > 100 µM |
| CON(C)C(=O)C(Cc1ccccc1)NC(=O)OC(C)(C)C (configuration not stated) | > 100 µM | > 100 µM | > 100 µM | > 100 µM | > 100 µM | > 100 µM | > 100 µM | > 100 µM | > 100 µM | > 100 µM |  | > 100 µM | > 100 µM |  |  | > 100 µM |  | > 100 µM |
| O=[N+]([O-])C(/C(Cl)=C(/Cl)N1CCCCC1)=C1\NCCO1 | > 100 µM |  | > 100 µM | > 100 µM | > 100 µM | > 100 µM |  | > 100 µM | > 100 µM | > 100 µM | > 100 µM | > 100 µM | > 100 µM |  |  | > 100 µM |  | > 100 µM |
| O=C1CN(c2cccc(C(F)(F)F)c2)C(=O)CN1NCNN1CC(=O)N(c2cccc(C(F)(F)F)c2)CC1=O | > 100 µM |  | > 100 µM | > 100 µM | > 100 µM | > 100 µM | > 100 µM | > 100 µM | > 100 µM | > 100 µM |  | > 100 µM | > 100 µM | > 100 µM |  |  |  | > 100 µM |
| COC1Cc2c(C)c(OC(C)=O)c3cccnc3c2O1 (configuration not stated) | 39.7 µM | 33.8 µM | 32.7 µM | 44.7 µM | > 100 µM | > 100 µM | 37.3 µM | 22.1 µM | 22.8 µM | 34.1 µM | 30.1 µM | 34 µM | 27.7 µM | 13.6 µM |  | 31.9 µM |  | 46.3 µM |
| COC(=O)c1cc(C)ccc1/C=C1\Cc2cc(C)c(C)cc2C1=O |  | > 100 µM | > 100 µM | > 100 µM | > 100 µM | > 100 µM | > 100 µM | > 100 µM | > 100 µM |  | > 100 µM | > 100 µM | > 100 µM | > 100 µM |  | > 100 µM | > 100 µM | > 100 µM |
| CC(C)[Si](OC12CCC(CC1O)CC2C(=O)O)(C(C)C)C(C)C (configuration not stated) | 31.7 µM | 27.4 µM | 30 µM | 42.4 µM | 23.8 µM |  |  | 24.8 µM | 29.1 µM | 70 µM | 25.1 µM | 28.3 µM | 29.3 µM |  |  |  |  | 39.7 µM |
| COC(=O)[C@H](CCSC)NC(=O)c1ccc(CNC(=O)/C=C/c2cccc(Oc3ccccc3)c2)cc1 | > 100 µM | 28.1 µM | > 100 µM | > 100 µM | > 100 µM | > 100 µM | > 73.2 µM | > 100 µM | > 100 µM | > 100 µM | > 90.6 µM | > 100 µM | 26.8 µM | > 100 µM |  | 37.8 µM | > 100 µM |  |
| CN(C(=O)OC(C)(C)C)[C@H]1CCCC[C@H]1N1CCCC1 | > 100 µM |  | > 100 µM | > 100 µM | > 100 µM | > 100 µM | > 100 µM | > 100 µM | > 100 µM | > 100 µM | > 100 µM | > 100 µM | > 100 µM | > 100 µM |  | > 100 µM | > 100 µM |  |
| CC(=O)c1ccc(-c2oc(-c3ccccc3)cc2-c2ccc3c(c2)OCO3)s1 | > 100 µM | > 100 µM | > 100 µM | > 100 µM | > 100 µM | > 100 µM | > 100 µM |  | > 100 µM | 2.99 µM |  |  | > 100 µM |  |  |  |  |  |
| NC(=O)/N=C(\N)NC(=O)c1ccccc1 |  | > 100 µM | > 100 µM | > 100 µM | > 100 µM |  | > 100 µM | > 100 µM | > 100 µM |  |  | > 100 µM | > 100 µM | > 100 µM |  | > 100 µM | > 100 µM | > 100 µM |
| NCCCNc1ccc2c(c1)[n+]([O-])c1ccccc1[n+]2[O-] | > 100 µM | 62.6 µM | > 100 µM | > 100 µM | 63.7 µM | 60 µM | 41.5 µM | 66.3 µM | 77.7 µM | 91.4 µM | 92.6 µM | > 100 µM | > 100 µM | 30.7 µM |  | 46.6 µM | 94.3 µM |  |
